The results in this text go back to patent publication US9365588B2, “Benzoxazines as modulators of ion channels” (Vertex Pharmaceuticals Incorporated, priority 2011, dated 2016).

Molecules are shown by their SMILES. pIC50: −log10 of the molar value. A value given as a limit tells only on which side of the number the result lay.

The target in this assay is human NaV 1.7 (Homo sapiens, UniProt Q15858). Put plainly: E-VIPR optical membrane potential assay with electrical stimulation. It counts as cell-based. The following applies: sodium channel inhibition; read-out: Binned Activity Data (IC50). The gist of the method: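 Membrane-potential read-out: background-subtracted 460 nm/580 nm ratio during a 9 s current-controlled stimulus, 400 Hz scan. Before stimulation, NaV1.7-HEK cells carried coumarin/oxonol dye and compound (final DMSO 0.625%) for 20–35 min at room temperature; tetracaine 125 μM served as positive control.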
human NaV 1.7, sequence (Q15858 whole entry): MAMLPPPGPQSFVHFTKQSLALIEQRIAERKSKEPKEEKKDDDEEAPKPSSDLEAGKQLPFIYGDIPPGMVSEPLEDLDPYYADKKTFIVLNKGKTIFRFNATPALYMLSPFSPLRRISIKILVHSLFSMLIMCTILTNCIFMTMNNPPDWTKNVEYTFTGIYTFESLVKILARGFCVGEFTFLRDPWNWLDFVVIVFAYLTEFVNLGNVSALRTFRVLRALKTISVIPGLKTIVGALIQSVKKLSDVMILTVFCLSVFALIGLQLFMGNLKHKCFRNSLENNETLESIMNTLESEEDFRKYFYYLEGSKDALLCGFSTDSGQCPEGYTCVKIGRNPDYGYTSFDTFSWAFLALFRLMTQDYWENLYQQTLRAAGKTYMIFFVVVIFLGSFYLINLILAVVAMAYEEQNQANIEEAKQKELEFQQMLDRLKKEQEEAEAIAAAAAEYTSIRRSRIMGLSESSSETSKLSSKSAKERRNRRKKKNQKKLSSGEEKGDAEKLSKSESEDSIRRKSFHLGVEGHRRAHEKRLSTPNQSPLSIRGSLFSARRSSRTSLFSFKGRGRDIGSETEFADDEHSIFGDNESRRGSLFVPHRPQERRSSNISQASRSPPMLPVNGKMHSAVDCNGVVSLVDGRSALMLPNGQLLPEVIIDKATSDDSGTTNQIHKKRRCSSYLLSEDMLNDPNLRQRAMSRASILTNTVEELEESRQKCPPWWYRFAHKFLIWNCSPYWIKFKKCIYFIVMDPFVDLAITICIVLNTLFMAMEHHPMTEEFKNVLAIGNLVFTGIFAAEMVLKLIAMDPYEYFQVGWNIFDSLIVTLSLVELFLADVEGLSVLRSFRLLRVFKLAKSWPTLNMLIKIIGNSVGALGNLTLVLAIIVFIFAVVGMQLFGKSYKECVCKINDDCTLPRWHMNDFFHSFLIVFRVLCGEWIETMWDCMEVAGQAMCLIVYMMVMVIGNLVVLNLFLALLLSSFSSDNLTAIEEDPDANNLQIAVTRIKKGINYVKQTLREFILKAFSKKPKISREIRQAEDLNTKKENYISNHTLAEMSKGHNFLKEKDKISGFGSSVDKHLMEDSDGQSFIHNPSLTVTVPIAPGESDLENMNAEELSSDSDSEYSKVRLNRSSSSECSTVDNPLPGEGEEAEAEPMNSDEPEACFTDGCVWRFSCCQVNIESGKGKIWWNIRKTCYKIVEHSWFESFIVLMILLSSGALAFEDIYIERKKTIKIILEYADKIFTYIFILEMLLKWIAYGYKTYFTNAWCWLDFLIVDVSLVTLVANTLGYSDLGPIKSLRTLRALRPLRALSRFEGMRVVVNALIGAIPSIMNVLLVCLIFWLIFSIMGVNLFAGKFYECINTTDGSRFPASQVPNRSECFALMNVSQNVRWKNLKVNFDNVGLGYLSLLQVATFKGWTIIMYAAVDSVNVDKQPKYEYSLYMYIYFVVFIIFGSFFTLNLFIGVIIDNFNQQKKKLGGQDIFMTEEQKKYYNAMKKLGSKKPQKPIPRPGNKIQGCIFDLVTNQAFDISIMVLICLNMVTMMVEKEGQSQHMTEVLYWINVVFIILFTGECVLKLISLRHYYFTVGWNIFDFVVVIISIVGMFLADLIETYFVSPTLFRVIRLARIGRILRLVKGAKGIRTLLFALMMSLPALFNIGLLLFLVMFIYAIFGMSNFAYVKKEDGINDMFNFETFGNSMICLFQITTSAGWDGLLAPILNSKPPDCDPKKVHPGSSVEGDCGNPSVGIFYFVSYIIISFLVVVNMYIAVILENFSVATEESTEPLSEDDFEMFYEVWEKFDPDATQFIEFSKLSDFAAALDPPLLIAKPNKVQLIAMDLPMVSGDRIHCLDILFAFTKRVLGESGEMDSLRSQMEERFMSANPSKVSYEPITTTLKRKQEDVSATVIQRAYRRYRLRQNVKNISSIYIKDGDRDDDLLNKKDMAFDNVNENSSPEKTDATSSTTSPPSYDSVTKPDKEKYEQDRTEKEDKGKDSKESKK
For orientation: pIC50 means the IC50 on a negative log10 scale, so that one unit is a factor of ten. Regarding `COC[C@H](C)Oc1ccc(C(=O)N2CCC3(CC2)Oc2ccccc2-n2cccc23)cc1OC` [Compound 725], the pIC50 is no less than 5.70.
For the compound `CC(C)(O)c1ccc(C(=O)N2CCC3(CC2)Oc2ncccc2-n2c(C(F)(F)F)ccc23)cc1` [Compound 726], the pIC50 is no less than 5.70.
Turning to `COc1cc(C(=O)N2CCC3(CC2)Oc2ccccc2-n2cccc23)ccc1OC(C)(C)C` [Compound 727], the pIC50 is no less than 5.70.
As to `CCn1cccc(C(=O)N2CCC3(CC2)Oc2cc(Cl)ccc2-n2cccc23)c1=O` [Compound 728], the pIC50 was no less than 5.70.
In the case of `COc1ccc(C(=O)N2CCC3(CC2)Oc2cc(Cl)ccc2-n2cccc23)c(OC(F)(F)F)c1` [Compound 729] it was no less than 5.70; in that of `Cc1cc(C(=O)N2CCC3(CC2)Oc2ccccc2-n2c(C(F)(F)F)ccc23)ccc1O` [Compound 732], no less than 5.70; in that of `Cc1cc(C(=O)N2CCC3(CC2)Oc2ccccc2-n2c(CN)ccc23)ccc1OC(C)C` [Compound 733], 5.30 to 5.70.
`COc1cc(OC(C)(C)C#N)ccc1C(=O)N1CCC2(CC1)Oc1ccccc1-c1c2cnn1C` [Compound 734]: the pIC50 was no less than 5.70.
In the case of `CCc1ccc(C(=O)N2CCC3(CC2)Oc2ccccc2-n2c(C)ccc23)cc1OC` [Compound 735] it was no less than 5.70; in that of `COc1ccc(C(=O)N2CCC3(CC2)Oc2cc(Cl)ccc2-n2cccc23)cc1S(N)(=O)=O` [Compound 736], less than 5.30.
Consider `Cc1cc(C(=O)N2CCC3(CC2)Oc2cc(Cl)ccc2-n2cccc23)ccc1OC(C)C` [Compound 737], for which the pIC50 was no less than 5.70.
With `CCOc1cccc(C(=O)N2CCC3(CC2)Oc2ccccc2-c2c3cnn2C)c1F` [Compound 738], the pIC50 was 5.30 to 5.70.
For the compound `COc1cccc(F)c1C(=O)N1CCC2(CC1)Oc1cc(Cl)ccc1-n1cccc12` [Compound 739], the pIC50 is no less than 5.70.
With `Cn1cc2c(n1)-c1ccccc1OC21CCN(C(=O)c2ccccc2OC(F)F)CC1` [Compound 740], the pIC50 is no less than 5.70.
In the case of `Cn1ccc(C(=O)N2CCC3(CC2)Oc2cc(Cl)ccc2-n2cccc23)cc1=O` [Compound 741] it was 5.30 to 5.70; in that of `CCn1ncc2c1-c1cc(F)ccc1OC21CCN(C(=O)c2ccc(OC(C)C)c(OC)c2)CC1` [Compound 742], 5.30 to 5.70; in that of `CC[C@H](C)Oc1ccc(C(=O)N2CCC3(CC2)Oc2ccccc2-n2cccc23)cc1C#N` [Compound 744], no less than 5.70.
As to `Cc1cc(C(=O)N2CCC3(CC2)Oc2ccccc2-c2c3cnn2C)cc(C)c1OC(C)C` [Compound 745], the pIC50 was no less than 5.70.
With `Cc1c(CO)cccc1C(=O)N1CCC2(CC1)Oc1ccccc1-c1c2cnn1C` [Compound 746] the figure was 5.30 to 5.70.
With `COc1cc(C(=O)N2CCC3(CC2)Oc2ccccc2-c2nn(C)cc23)cc(OC)c1OC` [Compound 747] the figure was less than 5.30; with `COc1cccc(OC)c1C(=O)N1CCC2(CC1)Oc1ccccc1-c1c2cnn1C` [Compound 748], 5.30 to 5.70; with `Cc1cc(C(=O)N2CCC3(CC2)Oc2ccccc2-c2c3cnn2C)ccc1C(C)(C)O` [Compound 750], no less than 5.70.
On to `COc1cc(C(=O)N2CCC3(CC2)Oc2cc(Cl)ccc2-n2cccc23)ccc1OC[C@@H]1COC(C)(C)O1` [Compound 751], for which the pIC50 is no less than 5.70.
In the case of `O=C(c1ccccc1OC(F)F)N1CCC2(CC1)Oc1ccccc1-c1nn(C(F)(F)F)cc12` [Compound 752] it was no less than 5.70.
With `COc1cc(C(=O)N2CCC3(CC2)Oc2ccccc2-c2nn(C)cc23)ccc1C(C)(C)C` [Compound 754] the figure was less than 5.30; with `COc1cc(C(=O)N2CCC3(CC2)Oc2ccccc2-n2c(C#N)ccc23)ccc1OCC(C)C` [Compound 755], no less than 5.70.
Regarding `COc1cc(C(=O)N2CCC3(CC2)Oc2ccccc2-c2c3cnn2C)ccc1OC(C)(C)C#N` [Compound 758], the pIC50 was no less than 5.70.
As for `COc1cc(C(=O)N2CCC3(CC2)Oc2cc(Cl)ccc2-n2cccc23)ccc1OC[C@H]1COC(C)(C)O1` [Compound 759], the pIC50 was no less than 5.70.
Consider `COCCOc1ccc(C(=O)N2CCC3(CC2)Oc2ccccc2-c2c3cnn2C)cc1C` [Compound 761], for which the pIC50 was no less than 5.70.
On to `CC(C)(O)c1ccc(C(=O)N2CCC3(CC2)Oc2ccccc2-n2c(C#N)ccc23)cc1` [Compound 762], for which the pIC50 was no less than 5.70.
For the compound `COc1cccc(F)c1C(=O)N1CCC2(CC1)Oc1ccccc1-c1c2cnn1C` [Compound 763], the negative-log IC50 (pIC50) was 5.30 to 5.70.
With `CCCOc1ccc(C(=O)N2CCC3(CC2)Oc2ccccc2-n2cccc23)cc1C` [Compound 764] the figure was no less than 5.70; with `Cc1[nH]c2c(C(=O)N3CCC4(CC3)Oc3ccccc3-c3c4cnn3C)cccc2c1C` [Compound 765], no less than 5.70.
With `Cn1cc2c(n1)-c1ccccc1OC21CCN(C(=O)c2ccc(S(=O)(=O)NC3CC3)cc2)CC1` [Compound 767], the pIC50 is no less than 5.70.
In the case of `COc1cc(C(=O)N2CCC3(CC2)Oc2ccccc2-n2c3ccc2S(C)(=O)=O)ccc1OC(C)C` [Compound 768] it was no less than 5.70.
As for `CCOc1c(F)cccc1C(=O)N1CCC2(CC1)Oc1ccccc1-n1c(C#N)ccc12` [Compound 769], the pIC50 is no less than 5.70.
On to `CC(C)Oc1cccc(C(=O)N2CCC3(CC2)Oc2ccccc2-n2c(C#N)ccc23)c1F` [Compound 770], for which the pIC50 is no less than 5.70.
As for `Cn1ncc2c1-c1ccccc1OC21CCN(C(=O)c2ccccc2OCCO)CC1` [Compound 771], the pIC50 is no less than 5.70.
In the case of `COc1cc(C(=O)N2CCC3(CC2)Oc2cc(F)ccc2-n2cccc23)ccc1OCC(N)=O` [Compound 772], the pIC50 was no less than 5.70.
On to `Cc1ccc(C(=O)N2CCC3(CC2)Oc2ccccc2-c2c3cnn2C)c(Cl)c1` [Compound 773], for which the pIC50 was no less than 5.70.
As for `COc1ccc(C(=O)N2CCC3(CC2)Oc2ccccc2-c2c3cnn2C)c(C)c1` [Compound 774], the pIC50 was no less than 5.70.
Turning to `O=C(c1ccc(OC2COC2)c(F)c1)N1CCC2(CC1)Oc1cc(Cl)ccc1-n1cccc12` [Compound 777], the pIC50 was no less than 5.70.
Take `O=C(c1ccc(S(=O)(=O)C(F)F)cc1)N1CCC2(CC1)Oc1ccccc1-n1c(C(F)(F)F)ccc12` [Compound 778]: the pIC50 is no less than 5.70.
Consider `CC(c1ccc(C(=O)N2CCC3(CC2)Oc2ccccc2-n2c(C#N)ccc23)cc1)S(C)(=O)=O` (stereo not drawn) [Compound 781], for which the pIC50 is 5.30 to 5.70.
On to `Cc1cc(S(C)(=O)=O)ccc1C(=O)N1CCC2(CC1)Oc1ccccc1-n1c(C#N)ccc12` [Compound 784], for which the pIC50 is no less than 5.70.
For `COc1cc(C(=O)N2CCC3(CC2)Oc2ccccc2-c2c3cnn2CC(F)(F)F)ccc1OCCC(C)C` [Compound 785], the pIC50 is no less than 5.70.
As to `CC(C)Oc1ccc(C(=O)N2CCC3(CC2)Oc2ccccc2-c2c3cnn2C)c(OC(C)C)c1` [Compound 788], the pIC50 is no less than 5.70.
Regarding `N#Cc1ccc2n1-c1ccccc1OC21CCN(C(=O)c2ccc(OC[C@H](O)CO)cc2)CC1` [Compound 789], the pIC50 is less than 5.30.
`O=C(c1ccccc1O)N1CCC2(CC1)Oc1cc(Cl)ccc1-n1cccc12` [Compound 790]: the pIC50 is no less than 5.70.
`COCCOc1ccc(C(=O)N2CCC3(CC2)Oc2ccccc2-n2cccc23)cc1OC` [Compound 791]: the pIC50 is no less than 5.70.
As for `Cc1cc(C(=O)N2CCC3(CC2)Oc2cc(Cl)ccc2-n2cccc23)ccc1C(C)(C)O` [Compound 792], the pIC50 was no less than 5.70.
